According to ChEMBL document CHEMBL1158878, “New phomopsolides from a Penicillium sp” (1997):

Columns and labels:
Assay type in all cases: functional
Staphylococcus aureus [1] = assay: Antimicrobial activity against Staphylococcus aureus at 100 ug by antimicrobial disk assay; settings: read-out: IZ
Staphylococcus aureus [2] = assay: Antimicrobial activity against Staphylococcus aureus at 25 ug by antimicrobial disk assay; settings: read-out: IZ
Staphylococcus aureus [3] = assay: Antimicrobial activity against Staphylococcus aureus at 10 units by antimicrobial disk assay
Staphylococcus aureus [4] = assay: Antimicrobial activity against Staphylococcus aureus at 10 ug by antimicrobial disk assay; settings: read-out: IZ
Staphylococcus aureus [5] = assay: Antimicrobial activity against Staphylococcus aureus at 50 ug by antimicrobial disk assay; settings: read-out: IZ
Staphylococcus aureus [6] = assay: Antimicrobial activity against Staphylococcus aureus at 30 ug by antimicrobial disk assay; settings: read-out: IZ

## C/C=C(\C)C(=O)O[C@H]1C=CC(=O)O[C@H]1CC[C@H](O)[C@H](C)O [6,7-DIHYDROPHOMOPSOLIDE B]
Staphylococcus aureus [1]
  zone of inhibition at 100 µg/disc: 10 mm

## C/C=C(\C)C(=O)O[C@H]1C=CC(=O)O[C@H]1/C=C\C(=O)C(C)O (some centres undefined) [PHOMOPSOLIDE A]
Staphylococcus aureus [2]
  zone of inhibition at 25 µg/disc: 22 mm

## CC1(C)S[C@@H]2[C@H](NC(=O)Cc3ccccc3)C(=O)N2[C@H]1C(=O)O [PENICILLIN G]
Staphylococcus aureus [3]
  inhibition zone (IZ): 22 mm

## CN[C@@H]1[C@H](O[C@H]2[C@H](O[C@H]3[C@H](O)[C@@H](O)[C@H](N=C(N)N)[C@@H](O)[C@@H]3N=C(N)N)O[C@@H](C)[C@]2(O)C=O)O[C@@H](CO)[C@H](O)[C@H]1O [STREPTOMYCIN]
Staphylococcus aureus [4]
  zone of inhibition at 10 µg/disc: 13 mm

## C/C=C(\C)C(=O)O[C@H]1C=CC(=O)O[C@H]1CCC(=O)C(C)O (some centres undefined) [6,7-DIHYDROPHOMOPSOLIDE A]
Staphylococcus aureus [5]
  zone of inhibition at 50 µg/disc: 9 mm

## C/C=C/C1=C(C)C(=O)C(C)(O)O1 (centres undefined)
Staphylococcus aureus [1]
  zone of inhibition at 100 µg/disc: 9 mm

## CN(C)[C@@H]1C(O)=C(C(N)=O)C(=O)[C@@]2(O)C(O)=C3C(=O)c4c(O)cccc4[C@@](C)(O)[C@H]3C[C@@H]12 [TETRACYCLINE]
Staphylococcus aureus [6]
  zone of inhibition at 30 µg/disc: 38 mm

## C/C=C(\C)C(=O)O[C@H]1C=CC(=O)O[C@H]1/C=C/[C@H](O)[C@H](C)O [PHOMOPSOLIDE B]
Staphylococcus aureus [2]
  zone of inhibition at 25 µg/disc: 20 mm

## C/C=C(\C)C(=O)O[C@H]1C=CC(=O)O[C@H]1/C=C/C(=O)C(C)O (some centres undefined)
Staphylococcus aureus [2]
  zone of inhibition at 25 µg/disc: 22 mm
